In article PMC2783949 (Bioorganic & medicinal chemistry, 2009):
Entries after “also recorded” stand apart in the source; their conditions may differ.

Tests used:
[1] = target: catalytic subunit of E. coli ATCase (Escherichia coli, UniProt P0A786); settings: for Inhibition Constant (Ki): pH 8.3; for mode of inhibition: relative to carbamyl phosphate
[2] = Oxidation of H-phosphinate 2 into PALA, 31P-NMR monitoring; type: physicochemical; settings: neutralized compound, over a period of two weeks
murine leukemias = settings: cited from earlier work
solid tumors = settings: mice; cited from earlier work

catalytic subunit of E. coli ATCase, sequence (P0A786 2-311): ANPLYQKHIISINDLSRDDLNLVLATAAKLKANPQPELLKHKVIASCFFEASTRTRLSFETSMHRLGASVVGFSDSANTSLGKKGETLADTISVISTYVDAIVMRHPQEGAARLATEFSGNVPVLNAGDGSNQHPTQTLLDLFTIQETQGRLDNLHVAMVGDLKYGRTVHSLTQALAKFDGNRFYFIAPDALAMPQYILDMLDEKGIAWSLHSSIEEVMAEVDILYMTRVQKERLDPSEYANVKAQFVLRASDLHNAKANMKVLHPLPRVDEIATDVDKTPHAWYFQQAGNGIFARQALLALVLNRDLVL

Structure (SMILES)	inhibition of ATCase (in words) [1]	other results
O=C(O)C[C@H](NC(=O)C[PH](=O)O)C(=O)O [Compound 2]	good inhibitor; also recorded: submicromolar inhibitors	oxidation of 2 into PALA [2]: could not be detected
NC(=O)OP(=O)(O)O [carbamyl phosphate]	–	Km ([1]; substrate of ATCase): 28 µM
O=C(O)C[C@@H](C(=O)O)N1CP(=O)(O)CC1=O [Compound 19, 2-(3-Hydroxy-3,5-dioxo-3l5-[1,3]azaphospholidin-1-yl)-succinic acid]	inactive	Inhibition Constant (Ki) [1]: inactive
O=C(O)C[C@H](NC(=O)CP(=O)(O)O)C(=O)O [Compound 1, N-phosphonacetyl-L-aspartate]	–	effect on murine leukemias (murine leukemias): murine leukemias were resistant; effect on solid tumors (solid tumors): eradicated solid tumors in mice
O=C(O)C[C@@H](C(=O)O)N1CCP(=O)(O)CC1 [Compound 14]	totally inactive	Inhibition Constant (Ki) [1]: inactive
O=C(O)C[C@H](NC(=O)CP(=O)(O)CC(=O)O)C(=O)O [Compound 24]	–	mode of inhibition [1]: competitive inhibitor
O=C(O)C[C@@H](C(=O)O)N1CCP(=O)(O)CC1=O [Compound 27, 2-(4-Hydroxy-2,4-dioxo-4λ[5]-[1,4]azaphosphinan-1-yl)-succinic acid]	significant inhibition; also recorded: micromolar-level inhibitor	Km(CP)/Ki ([1]; Km of carbamyl phosphate over Ki of inhibitor): 28
O=C(O)CCC(=O)N[C@@H](CC(=O)O)C(=O)O [Compound 42]	none of the carboxylates 38, 40, and 42 displayed any significant inhibition	–
O=C(O)C[C@H](NC(=O)CP(=O)(O)CCO)C(=O)O [Compound 22]	significant inhibitory activity	mode of inhibition [1]: uncompetitive
O=C(O)C[C@H](NC(=O)CC(C(=O)O)C(=O)O)C(=O)O [Compound 38]	none of the carboxylates 38, 40, and 42 displayed any significant inhibition	–
O=C(O)C[C@H](NC(=O)C[PH](=O)CO)C(=O)O (some centres unmarked) [Compound 3]	submicromolar inhibitors	–
O=C(O)C[C@H](NC(=O)OCP(=O)(O)O)C(=O)O [Compound 32, 2-Phosphonomethyl-oxycarbonylamino-succinic acid]	does not inhibit ATCase at all	Inhibition Constant (Ki) [1]: inactive
O=C(O)CC(=O)N[C@@H](CC(=O)O)C(=O)O [Compound 40]	none of the carboxylates 38, 40, and 42 displayed any significant inhibition; also recorded: inactive	–
